Measurements reported in patent US9102977B2, “Method for analysis of cellular DNA content” (ChemoMetec A/S, priority 2010, dated 2015).

Assays:
[1] = system: U2OS cells; details: known/described effect; cited from earlier work
[2] = system: U2OS cells; test: Measurement of drug effects on cell cycle using acid lysis method (DNA content by DAPI image cytometry); type: cell-based, human; details: drug treatment for 20 hours, Nucleocounter NC-3000 (FIG. 5)
Method: U2OS cells were grown in RPMI+10% FCS to approximately 75% confluency in 6-well plates (Nunclon surface, Nunc) and then treated with the following drugs for 20 hours:
After drug treatment each of the wells was washed once with 1 mL of PBS and then incubated with 0.25 ml of lysis buffer (100 mM citrate buffer (pH 2.25), 0.5% Triton X-100, 5 μg/ml DAPI) for 5 minutes at 37° C. Prior to quantitative image cytometry (Nucleocounter NC-3000), the samples were neutralized by adding 0.25 ml stabilization buffer (500 mM citrate, pH 8.3).

For COC(=O)Nc1nc2ccc(C(=O)c3cccs3)cc2[nH]1 [Nocodazole], the “known effect of the drug on the cell cycle (arrest phase)” value (“known effect of the drug” below) [1] is given as 1. Nocodazole (G2-M arrest):.
In the case of NC(=O)NO [Hydroxyurea], the “known effect of the drug” value [1] is given as 3. Hydroxyurea, HU (S arrest):.
In the case of CC[C@@]1(O)C(=O)OCc2c1cc1n(c2=O)Cc2cc3ccccc3nc2-1 [Camptothecin], the “cell cycle distribution (DNA content histogram)” value [2] is given as “accumulation of S-G2 cells” and the “known effect of the drug” value [1] is given as 4. Camptothecin, CRT (S-G2 arrest):.
In the case of N[C@@H](Cn1ccc(=O)c(O)c1)C(=O)O [L-mimosine], the “cell cycle distribution (DNA content histogram)” value [2] is listed as “predominantly G1 peak” and the “known effect of the drug” value [1] is listed as 2. L-mimosine (G1 arrest):.
For COc1cc([C@@H]2c3cc4c(cc3[C@@H](O[C@@H]3O[C@@H]5CO[C@@H](C)O[C@H]5[C@H](O)[C@H]3O)[C@H]3COC(=O)[C@H]23)OCO4)cc(OC)c1O [Etoposide], the “known effect of the drug” value [1] is listed as 5. Etoposide (S-G2 arrest):.
